Data as given in patent publication US20240199546A1, “INHIBITORS OF SOLUTE CARRIER FAMILY 6A MEMBER 19 (SLC6A19) AND METHODS OF USE THEREOF” (Maze Therapeutics, Inc., priority 2022, published 2024).

biological target: T1, human SLC6A19 and TMEM27 (Homo sapiens, UniProt Q695T7); experiment: Radiolabelled (3H) leucine uptake in CHO cells with doxycycline-inducible expression of human SLC6A19 and TMEM27 (Example B-1); format: cell-based; settings: CHO cells with doxycycline-inducible expression of human SLC6A19 and TMEM27, read-out: SLC6A19_Radioligand Uptake Assay IC50
T1 construct: expressed in transfected cells
T1 sequence (Q695T7 1-634): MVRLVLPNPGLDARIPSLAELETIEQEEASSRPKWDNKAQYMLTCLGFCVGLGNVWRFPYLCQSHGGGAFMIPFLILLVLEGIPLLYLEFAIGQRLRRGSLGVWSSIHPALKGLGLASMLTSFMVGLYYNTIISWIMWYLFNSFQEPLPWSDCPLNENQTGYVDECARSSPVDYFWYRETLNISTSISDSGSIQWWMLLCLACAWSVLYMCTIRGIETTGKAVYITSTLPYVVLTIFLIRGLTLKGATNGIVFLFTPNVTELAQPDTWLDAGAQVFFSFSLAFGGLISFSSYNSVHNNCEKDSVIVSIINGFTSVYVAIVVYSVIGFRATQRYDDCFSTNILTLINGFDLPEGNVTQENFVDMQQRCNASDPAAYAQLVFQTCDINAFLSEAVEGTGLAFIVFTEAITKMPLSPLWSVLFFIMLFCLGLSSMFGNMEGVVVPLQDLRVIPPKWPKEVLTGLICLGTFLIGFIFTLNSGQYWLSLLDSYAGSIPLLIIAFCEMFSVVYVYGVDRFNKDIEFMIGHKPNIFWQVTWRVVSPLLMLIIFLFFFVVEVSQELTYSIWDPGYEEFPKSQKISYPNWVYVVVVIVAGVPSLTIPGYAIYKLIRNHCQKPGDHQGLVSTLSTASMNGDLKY
T1 sequence (Q9HBJ8 15-222 partner): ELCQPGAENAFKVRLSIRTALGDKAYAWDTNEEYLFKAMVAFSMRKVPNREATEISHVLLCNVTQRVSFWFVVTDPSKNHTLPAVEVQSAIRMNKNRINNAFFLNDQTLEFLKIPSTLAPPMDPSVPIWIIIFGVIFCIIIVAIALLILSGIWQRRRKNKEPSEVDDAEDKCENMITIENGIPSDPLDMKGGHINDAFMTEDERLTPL
Outline: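 CHO cells were induced with doxycycline for 18 h at 37 °C, washed in HBSS, then exposed to compounds for 1 h: 8-point, 3-fold dilutions in duplicate, 0.5% DMSO final. Uptake measured by scintillation counting after 2 h shaking. Activity normalized with positive control as 0% and DMSO as 100%.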

Going from `CC1(C(=O)NCc2cc3cc(Cl)c(OCc4cccc(C(F)(F)F)n4)cc3[nH]2)CC1` [Compound 101, N-((5-chloro-6-((6-(trifluoromethyl)pyridin-2-yl)methoxy)-1H-indol-2-yl)methyl)-1-methylcyclopropane-1-carboxamide] to `Cc1ccc(COc2cc3[nH]c(CNC(=O)C4(C)CC4)cc3cc2Cl)nc1` [Compound 21, N-((5-chloro-6-((5-methylpyridin-2-yl)methoxy)-1H-indol-2-yl)methyl)-1-methylcyclopropane-1-carboxamide], the IC50 falls from 4360 nM to 532 nM (8.2-fold). The second is the more potent here.

Going from `O=C(NCc1cc2cc(Cl)c(OCc3cscn3)cc2[nH]1)C1CCOC1` (centres unmarked) [Compound 267, N-((5-chloro-6-(thiazol-4-ylmethoxy)-1H-indol-2-yl)methyl)tetrahydrofuran-3-carboxamide] to `O=C(NCc1cc2cc(Cl)c(OCc3cscn3)cc2[nH]1)[C@H]1CCOC1` [Compound 308, (S)-N-((5-chloro-6-(thiazol-4-ylmethoxy)-1H-indol-2-yl)methyl)tetrahydrofuran-3-carboxamide], the IC50 falls from 720 nM to 168 nM (4.3-fold). The second is the more potent here.

Compared with `Cc1cc(COc2cc3[nH]c(CNC(=O)N4CCC4C(F)F)cc3cc2Cl)on1` (racemic) [Compound 581, (S)-N-((5-chloro-6-((3-methylisoxazol-5-yl)methoxy)-1H-indol-2-yl)methyl)-2-(difluoromethyl)azetidine-1-carboxamide and (R)-N-((5-chloro-6-((3-methylisoxazol-5-yl)methoxy)-1H-indol-2-yl)methyl)-2-(difluoromethyl)azetidine-1-carboxamide], `Cc1cc(COc2cc3[nH]c(CNC(=O)[C@H](O)CF)cc3cc2Cl)on1` [Compound 246, (S)-N-((5-chloro-6-((3-methylisoxazol-5-yl)methoxy)-1H-indol-2-yl)methyl)-3-fluoro-2-hydroxypropanamide] is 1.6-fold lower in IC50: 657 nM for the first, 411 nM for the second. The second is the more potent here.

First: C[C@@H]1CCCN1C(=O)NCc1cc2cc(F)c(OCc3cscn3)cc2[nH]1 [Compound 386, (R)-N-((5-fluoro-6-(thiazol-4-ylmethoxy)-1H-indol-2-yl)methyl)-2-methylpyrrolidine-1-carboxamide]
Second: O=C(NCc1cc2cc(F)c(OCc3cscn3)cc2[nH]1)C1(CO)CC1 [Compound 255, N-((5-fluoro-6-(thiazol-4-ylmethoxy)-1H-indol-2-yl)methyl)-1-(hydroxymethyl)cyclopropane-1-carboxamide]
The IC50 of the first is 7.8-fold lower: 174 nM for the first, 1360 nM for the second. The first is the more potent here.

Going from `[2H]C([2H])([2H])C(=O)NCc1cc2cc(Cl)c(OCc3cc(C)no3)cc2[nH]1` [Compound 562, N-((5-chloro-6-((3-methylisoxazol-5-yl)methoxy)-1H-indol-2-yl)methyl)acetamide-2,2,2-d3] to `Cc1cc(COc2cc3[nH]c(CNC(=O)[C@H](C)CO)cc3cc2Cl)on1` [Compound 536, (R)-N-((5-chloro-6-((3-methylisoxazol-5-yl)methoxy)-1H-indol-2-yl)methyl)-3-hydroxy-2-methylpropanamide], the IC50 rises from 83.3 nM to 1360 nM (16-fold).

First: CC1(C(=O)NCc2cc3cc(Cl)c(OCCC4CCC4)cc3[nH]2)CC1 [Compound 394, N-((5-chloro-6-(2-cyclobutylethoxy)-1H-indol-2-yl)methyl)-1-methylcyclopropane-1-carboxamide]
Second: CC1(C(=O)NCc2cc3cc(Cl)c(OCC4COC4)cc3[nH]2)CC1 [Compound 336, N-((5-chloro-6-(oxetan-3-ylmethoxy)-1H-indol-2-yl)methyl)-1-methylcyclopropane-1-carboxamide]
The IC50 of the first is 1.8-fold lower: 676 nM for the first, 1190 nM for the second. The first is the more potent here.

Going from `CC1(C(=O)NCc2cc3ccc(OCc4cscn4)c(F)c3[nH]2)CC1` [Compound 19, N-((7-fluoro-6-(thiazol-4-ylmethoxy)-1H-indol-2-yl)methyl)-1-methylcyclopropane-1-carboxamide] to `CC1(C(=O)NCc2cc3cc(Cl)c(OCc4cc(F)ccn4)cc3[nH]2)CC1` [Compound 35, N-((5-chloro-6-((4-fluoropyridin-2-yl)methoxy)-1H-indol-2-yl)methyl)-1-methylcyclopropane-1-carboxamide], the IC50 rises from 341 nM to 902 nM (2.6-fold).

Compared with `Cc1cc(COc2cc3[nH]c(CNC(=O)CC(F)(F)F)cc3cc2Cl)on1` [Compound 564, N-((5-chloro-6-((3-methylisoxazol-5-yl)methoxy)-1H-indol-2-yl)methyl)-3,3,3-trifluoropropanamide], `Cc1cc(COc2cc3[nH]c(CNC(=O)[C@@H]4CCC[C@H]4O)cc3cc2Cl)on1` (racemic) [Compound 534, (1R,2R)-N-((5-chloro-6-((3-methylisoxazol-5-yl)methoxy)-1H-indol-2-yl)methyl)-2-hydroxycyclopentane-1-carboxamide and (1S,2S)-N-((5-chloro-6-((3-methylisoxazol-5-yl)methoxy)-1H-indol-2-yl)methyl)-2-hydroxycyclopentane-1-carboxamide] is 17-fold higher in IC50: 174 nM for the first, 3040 nM for the second.

Going from `CC1(C(=O)NCc2cc3cc(Cl)c(OCc4ccccc4O)cc3[nH]2)CC1` [Compound 203, N-((5-chloro-6-((2-hydroxybenzyl)oxy)-1H-indol-2-yl)methyl)-1-methylcyclopropane-1-carboxamide] to `CC1(C(=O)NCc2cc3cc(Cl)c(OCc4cnccc4F)cc3[nH]2)CC1` [Compound 356, N-((5-chloro-6-((4-fluoropyridin-3-yl)methoxy)-1H-indol-2-yl)methyl)-1-methylcyclopropane-1-carboxamide], the IC50 falls from 1090 nM to 389 nM (2.8-fold). The second is the more potent here.

`O=C(NCc1cc2cc(OC(F)(F)F)c(OCc3cocn3)cc2[nH]1)N1CCC1` [Compound 480, N-((6-(oxazol-4-ylmethoxy)-5-(trifluoromethoxy)-1H-indol-2-yl)methyl)azetidine-1-carboxamide] and `O=C(NCc1cc2cc(OC(F)(F)F)c(OCc3ccon3)cc2[nH]1)N1CCC1` [Compound 416, N-((6-(isoxazol-3-ylmethoxy)-5-(trifluoromethoxy)-1H-indol-2-yl)methyl)azetidine-1-carboxamide] are within 1.5-fold of each other in IC50: 372 nM for the first, 379 nM for the second.

First: Cc1coc(COc2cc3[nH]c(CNC(=O)C4(C)CC4)cc3cc2Cl)n1 [Compound 71, N-((5-chloro-6-((4-methyloxazol-2-yl)methoxy)-1H-indol-2-yl)methyl)-1-methylcyclopropane-1-carboxamide]
Second: Cc1cc(COc2cc(F)c3cc(CNC(=O)C4(C)CC4)[nH]c3c2)on1 [Compound 339, N-((4-fluoro-6-((3-methylisoxazol-5-yl)methoxy)-1H-indol-2-yl)methyl)-1-methylcyclopropane-1-carboxamide]
The IC50 of the first is 3-fold lower: 111 nM for the first, 328 nM for the second. The first is the more potent here.

`CN(C(=O)NCc1cc2cc(Cl)c(OCc3cscn3)cc2[nH]1)C1CC1` [Compound 359, 3-((5-chloro-6-(thiazol-4-ylmethoxy)-1H-indol-2-yl)methyl)-1-cyclopropyl-1-methylurea] and `O=C(NCc1cc2cc(Cl)c(OCc3cscn3)cc2[nH]1)C1CC12CC2` (centres unmarked) [Compound 553, N-((5-chloro-6-(thiazol-4-ylmethoxy)-1H-indol-2-yl)methyl)spiro[2.2]pentane-1-carboxamide] are within 1.5-fold of each other in IC50: 231 nM for the first, 342 nM for the second.

`CC1(C(=O)NCc2cc3cc(Cl)c(CNc4ccccn4)cc3[nH]2)CC1` [Compound 609, N-((5-chloro-6-((pyridin-2-ylamino)methyl)-1H-indol-2-yl)methyl)-1-methylcyclopropane-1-carboxamide] and `CCOCCOc1cc2[nH]c(CNC(C)=O)cc2cc1Cl` [Compound 459, N-((5-chloro-6-(2-ethoxyethoxy)-1H-indol-2-yl)methyl)acetamide] are within 1.5-fold of each other in IC50: 339 nM for the first, 505 nM for the second.
